In brackets after ≈: the same amount, converted by molar mass. Bounds are passed on as bounds.

For this data set the following is noted: for aqueous solubility: pH 6.8.

`CC(C)N(CCCNC(=O)Nc1ccc(C(C)(C)C)cc1)C[C@@H]1O[C@@H](n2cc(Br)c3c(N)ncnc32)[C@H](O)[C@H]1O`: the MDR1-MDCK efflux ratio came to 17; the intrinsic clearance, human liver microsomes was 354 mL/min/kg; the intrinsic clearance, rat liver microsomes amounted to 2010 mL/min/kg.
Consider `CC1(C)[C@@H]2C[C@H]1[C@@]1(O)[C@@H](C2)Oc2c(ccc(O)c2C(=O)NCCNc2ccccn2)[C@@H]1O`, for which the MDR1-MDCK efflux ratio was 24.5; the intrinsic clearance, human liver microsomes came out at 322 mL/min/kg; the intrinsic clearance, rat liver microsomes was determined as 2010 mL/min/kg.
Take `Cn1cc(CCNC(=O)N2CCc3sccc3C2)cn1`: the MDR1-MDCK efflux ratio came out at 1.51; the intrinsic clearance, human liver microsomes amounted to 15 mL/min/kg; the intrinsic clearance, rat liver microsomes turned out to be 68.4 mL/min/kg; the aqueous solubility came to 40 µg/mL (≈ 138 µM).
For the compound `O=C(C1CCCN(c2cnccn2)C1)N1CCc2ccccc2C1` (stereo unspecified), the intrinsic clearance, human liver microsomes came to 273 mL/min/kg; the intrinsic clearance, rat liver microsomes was found to be 4500 mL/min/kg; the aqueous solubility stood at 53.2 µg/mL (≈ 165 µM).
For the compound `CCS(=O)(=O)N1CCN(c2ccc(Nc3ncc(C(N)=O)c(NC4CC4)n3)cc2)CC1`, the MDR1-MDCK efflux ratio turned out to be 39.4; the intrinsic clearance, human liver microsomes was determined as 9.73 mL/min/kg; the intrinsic clearance, rat liver microsomes was found to be 36.3 mL/min/kg.
Taken in the same sequence, the figures for `CCCc1cc(C(=O)Nc2ccc(-c3nnc(C)[nH]3)cc2)no1` were 0.865, 131 mL/min/kg and 290 mL/min/kg.
Take `CNc1nc(Nc2cnn([C@H]3CCN(C4COC4)C[C@@H]3F)c2Cl)ncc1C(F)(F)F`: the MDR1-MDCK efflux ratio is 1.31; the intrinsic clearance, human liver microsomes is 10.6 mL/min/kg; the intrinsic clearance, rat liver microsomes turned out to be 60.9 mL/min/kg.
The corresponding values for `Cc1nnc(COc2cccc(-n3ccnc3)c2)n1C1CC1` are 23.1, ≤ 4.74 mL/min/kg and 16.6 mL/min/kg.
As to `Cc1nn(C)c2nc(-c3ccncc3)cc(C(=O)O)c12`, the intrinsic clearance, human liver microsomes was ≤ 4.74 mL/min/kg and the intrinsic clearance, rat liver microsomes was ≤ 10.7 mL/min/kg.
As for `Cc1cccc(OCCCNc2cc(Cn3c(C)nc4ccccc43)nc(N)n2)c1`, the MDR1-MDCK efflux ratio is 22.7; the intrinsic clearance, human liver microsomes is 535 mL/min/kg; the intrinsic clearance, rat liver microsomes came to 2050 mL/min/kg; the aqueous solubility turned out to be 35.5 µg/mL (≈ 88.1 µM).
With `CC(C)c1noc(CNC(=O)N2C[C@H]3C[C@@H](C2)c2cccc(=O)n2C3)n1`, the MDR1-MDCK efflux ratio came out at 3.14; the intrinsic clearance, human liver microsomes was 7.35 mL/min/kg; the intrinsic clearance, rat liver microsomes was 73.7 mL/min/kg.
In the case of `CCCc1cc(O)nc(SCC(=O)N2CCN(C)CC2)n1`, the MDR1-MDCK efflux ratio turned out to be 23.9; the intrinsic clearance, human liver microsomes was ≤ 4.74 mL/min/kg; the intrinsic clearance, rat liver microsomes is ≤ 10.7 mL/min/kg.
In the case of `CC(=O)Nc1ccc(C(=O)N2CCCCC2c2nc(N)ncc2-c2cccc(Cl)c2)cc1` (stereo unspecified), the MDR1-MDCK efflux ratio was 98; the fraction unbound, human plasma is 0.0331; the fraction unbound, rat plasma is 0.0384; the intrinsic clearance, human liver microsomes stood at 53.3 mL/min/kg. The compound also gave an intrinsic clearance, rat liver microsomes of 651 mL/min/kg and an aqueous solubility of 57.5 µg/mL (≈ 128 µM).
For `CC(C)[C@@H](C(=O)Nc1nc2ccccc2[nH]1)N1Cc2ccccc2C1=O`, the intrinsic clearance, human liver microsomes is ≤ 4.74 mL/min/kg; the intrinsic clearance, rat liver microsomes was found to be 262 mL/min/kg; the aqueous solubility came to 11 µg/mL (≈ 31.6 µM).
For `CNC(=O)c1ccc(/C=C/c2nc3cc(Cl)ccc3o2)cc1`, the MDR1-MDCK efflux ratio was determined as 0.598 and the aqueous solubility was 0.76 µg/mL (≈ 2.43 µM).
For the compound `CC(C)(C)c1ccc(=O)n(CC2CN(CC3(O)CCCC3)C2)n1`, the MDR1-MDCK efflux ratio is 18.8; the intrinsic clearance, human liver microsomes was found to be 6.33 mL/min/kg; the intrinsic clearance, rat liver microsomes was 110 mL/min/kg; the aqueous solubility came out at 45.8 µg/mL (≈ 143 µM).
With `CC(C)Cc1n[nH]c(-c2ccc(N3CCN(C)CC3)cc2)n1`, the MDR1-MDCK efflux ratio was found to be 3.36; the intrinsic clearance, human liver microsomes is ≤ 4.74 mL/min/kg; the intrinsic clearance, rat liver microsomes was 236 mL/min/kg.
For `Fc1ccc(Nc2nc(N3CCCCC3)c3nccnc3n2)cc1`, the MDR1-MDCK efflux ratio came to 0.305 and the aqueous solubility was 0.12 µg/mL (≈ 0.37 µM).
On to `CNc1ncc(-c2nc(C3(c4ccccc4)CC3)nn2C(C)(C)C)cn1`, for which the MDR1-MDCK efflux ratio came out at 0.995; the intrinsic clearance, human liver microsomes is 61.5 mL/min/kg; the intrinsic clearance, rat liver microsomes is 878 mL/min/kg; the aqueous solubility came out at 3.82 µg/mL (≈ 11 µM).
In the case of `COc1ccccc1-n1cc(CNC(=O)N(C)Cc2c(C)nn(C)c2C)cn1`, the MDR1-MDCK efflux ratio stood at 54.7; the intrinsic clearance, human liver microsomes came out at 75.5 mL/min/kg; the intrinsic clearance, rat liver microsomes was 511 mL/min/kg.
In the case of `CCOc1ncccc1C(=O)Nc1sccc1C#N`, the aqueous solubility came to 1.13 µg/mL (≈ 4.13 µM).
`COCC1(CNS(=O)(=O)c2ccccc2)CCC1`: the MDR1-MDCK efflux ratio stood at 0.696; the intrinsic clearance, human liver microsomes stood at 30.7 mL/min/kg; the intrinsic clearance, rat liver microsomes was 996 mL/min/kg.
Turning to `Cc1nc(N(C)C)cc(C2(C)CCNCC2)n1`, the MDR1-MDCK efflux ratio came out at 17.7; the intrinsic clearance, human liver microsomes was ≤ 4.74 mL/min/kg; the intrinsic clearance, rat liver microsomes is 18.4 mL/min/kg; the aqueous solubility turned out to be 45 µg/mL (≈ 192 µM).
On to `Cc1cc(C)nc(N2Cc3ccccc3C2=N)n1`, for which the MDR1-MDCK efflux ratio turned out to be 0.807; the intrinsic clearance, human liver microsomes came to 24.6 mL/min/kg; the intrinsic clearance, rat liver microsomes was 1160 mL/min/kg.
For `Cc1noc(C2CCN(CCc3ccccc3)CC2)n1`, the MDR1-MDCK efflux ratio worked out at 0.492; the intrinsic clearance, human liver microsomes amounted to 18 mL/min/kg; the intrinsic clearance, rat liver microsomes is 448 mL/min/kg; the aqueous solubility came to 63.8 µg/mL (≈ 235 µM).
The corresponding values for `CC(C)c1nnc(-c2ccc(-c3ccccc3)nc2)n1-c1cccc2nonc12` are 4.09, 8.27 mL/min/kg, 518 mL/min/kg and 53.4 µg/mL (≈ 140 µM).
For `Cc1cc(C(=O)NC2CCN(c3nc(-c4cccs4)nc4ccccc34)CC2)on1`, the MDR1-MDCK efflux ratio turned out to be 0.753 and the aqueous solubility was found to be 0.96 µg/mL (≈ 2.29 µM).
Turning to `Cc1nc(Cl)cc(Nc2cnn(C(C)(C)C)c2)n1`, the MDR1-MDCK efflux ratio came out at 0.684; the intrinsic clearance, human liver microsomes is ≤ 4.74 mL/min/kg; the intrinsic clearance, rat liver microsomes is 21.4 mL/min/kg; the aqueous solubility came to 22.6 µg/mL (≈ 85 µM).
Take `O=C(c1cc(Oc2cccc(F)c2)nc2ccccc12)N1CCOCC1`: the aqueous solubility worked out at 16.1 µg/mL (≈ 45.7 µM).
As to `O=C1CCCN1CCCN1CCC(n2c(=O)[nH]c3ccccc32)CC1`, the intrinsic clearance, human liver microsomes is ≤ 4.74 mL/min/kg; the intrinsic clearance, rat liver microsomes turned out to be 15.7 mL/min/kg; the aqueous solubility was 15.9 µg/mL (≈ 46.4 µM).
Consider `Cc1csc(N2CCN(Cc3ccc(OCC(F)(F)F)nc3)CC2)n1`, for which the MDR1-MDCK efflux ratio is 0.655; the intrinsic clearance, human liver microsomes was 22.7 mL/min/kg; the intrinsic clearance, rat liver microsomes was 106 mL/min/kg; the aqueous solubility came out at 31 µg/mL (≈ 83.3 µM).
As to `COc1cc(C#N)ccc1Cn1ccnc1C(C)C`, the MDR1-MDCK efflux ratio came to 2.82; the intrinsic clearance, human liver microsomes came to 17.3 mL/min/kg; the intrinsic clearance, rat liver microsomes is 166 mL/min/kg.
As to `Cc1nc(N2CCOc3ccccc3C2)c2cnn(C)c2n1`, the MDR1-MDCK efflux ratio worked out at 0.513; the intrinsic clearance, human liver microsomes was found to be 62.7 mL/min/kg; the intrinsic clearance, rat liver microsomes is 272 mL/min/kg; the aqueous solubility is 42.8 µg/mL (≈ 145 µM).
As to `Cn1nccc1C(=O)C1CCN(C(=O)c2cc(C(C)(C)C)nn2C)CC1`, the intrinsic clearance, human liver microsomes is ≤ 4.74 mL/min/kg and the intrinsic clearance, rat liver microsomes came to 97.9 mL/min/kg.
Compound `CN(C)S(=O)(=O)Nc1ccc2sncc2c1` had an aqueous solubility of 53.6 µg/mL (≈ 208 µM).
Regarding `Cc1ccc(NC(=O)CN2CCCN(c3ccc(C(F)(F)F)cn3)CC2)c(F)c1`, the MDR1-MDCK efflux ratio amounted to 1.09; the intrinsic clearance, human liver microsomes was determined as 141 mL/min/kg; the intrinsic clearance, rat liver microsomes turned out to be 643 mL/min/kg; the aqueous solubility was 24.6 µg/mL (≈ 59.9 µM).
`CC(C)C[C@H](CO)Nc1nc(S[C@@H](C)c2ccccc2)nc2nc(N)sc12` had an intrinsic clearance, human liver microsomes of 40.2 mL/min/kg and an intrinsic clearance, rat liver microsomes of 329 mL/min/kg.
`COc1ccc(C(=O)N(C)Cc2nccn2C)c(F)c1`: the MDR1-MDCK efflux ratio turned out to be 2.22; the intrinsic clearance, human liver microsomes was ≤ 4.74 mL/min/kg; the intrinsic clearance, rat liver microsomes was determined as 53.8 mL/min/kg; the aqueous solubility came to 52.5 µg/mL (≈ 189 µM).
As for `Cc1ccc(NC(=O)CN(C)C2CCCCC2)cc1S(=O)(=O)N(C)C`, the MDR1-MDCK efflux ratio was 1.45; the intrinsic clearance, human liver microsomes stood at 432 mL/min/kg; the intrinsic clearance, rat liver microsomes was determined as 3870 mL/min/kg.
In the case of `CCN(Cc1nc(C)no1)C(=O)c1cc(C)c(C)n(C)c1=O`, the MDR1-MDCK efflux ratio was 82.6; the intrinsic clearance, human liver microsomes was ≤ 4.74 mL/min/kg; the intrinsic clearance, rat liver microsomes was ≤ 10.7 mL/min/kg.
The corresponding values for `CCN(Cc1cnn(C(C)C)c1)C(=O)NCCC(C)(C)OC` are 17.2, 5.64 mL/min/kg and 163 mL/min/kg.
Consider `O=C(Cc1csc(-c2ccccn2)n1)NC1CCCCCC1`, for which the MDR1-MDCK efflux ratio came to 0.945; the intrinsic clearance, human liver microsomes came to 87 mL/min/kg; the intrinsic clearance, rat liver microsomes worked out at 2280 mL/min/kg; the aqueous solubility stood at 11.4 µg/mL (≈ 36.2 µM).
Take `CSCc1csc(NC(C)=O)n1`: the MDR1-MDCK efflux ratio stood at 0.631; the intrinsic clearance, human liver microsomes was determined as 19.2 mL/min/kg; the intrinsic clearance, rat liver microsomes came out at 248 mL/min/kg; the aqueous solubility came to 27.9 µg/mL (≈ 138 µM).
Regarding `CNc1nc(-c2cc(OC)cc(OC)c2)ncc1F`, the MDR1-MDCK efflux ratio is 0.408; the intrinsic clearance, human liver microsomes is 37.1 mL/min/kg; the intrinsic clearance, rat liver microsomes stood at 118 mL/min/kg; the aqueous solubility was 25.6 µg/mL (≈ 97.4 µM).
`O=C(Nc1ncccc1OC(F)F)C1CCCCC1` gave an intrinsic clearance, human liver microsomes of 61.6 mL/min/kg and an intrinsic clearance, rat liver microsomes of 1090 mL/min/kg.
Turning to `CCCc1ncncc1C(=O)NCc1noc(C2CC2)n1`, the MDR1-MDCK efflux ratio was 1.73; the intrinsic clearance, human liver microsomes was ≤ 4.74 mL/min/kg; the intrinsic clearance, rat liver microsomes came out at 112 mL/min/kg.
Regarding `COc1ccc(C)cc1S(=O)(=O)NCCC(=O)Nc1ccccc1C`, the MDR1-MDCK efflux ratio is 16.9; the intrinsic clearance, human liver microsomes worked out at 92 mL/min/kg; the intrinsic clearance, rat liver microsomes came to 2150 mL/min/kg.

For the origin of these results see the Biogen ADME set (Fang et al. 2023).
